Measured values: US8816088B2 (Theravance, Inc., priority 2009, dated 2014)
Structures can show the parent of a compound that is named as a salt.

Test system: MCh-induced bronchoconstriction
Assay: Einthoven assay: bronchoprotection against methacholine (MCh)-induced bronchoconstriction
Format: in vivo
Conditions: for inhibition in vivo at 0.1 mg: Rattus norvegicus, inhaled or nasal, 24 h, read-out: Broncho. at 24 h, Bronchoprotective effect present at 24 h, 100 μg by inhalation, 24 h after administration; for Broncho. at 24 h; Bronchoprotective effect present at 24 h: rat, 100 μg by inhalation, 24 h after administration
Method: This assay measures the ability of a test compound to provide bronchoprotection against methacholine (MCh)-induced bronchoconstriction in a rat. Male Sprague-Dawley rats (Harlan, Indianapolis, Ind.), weighing between 200 g and 350 g, were used for all studies. Test compound or vehicle (sterile deionized water) were dosed by inhalation (1H) over a 10 min period in a pie shaped inhalation chamber (R+S Molds, San Carlos, Calif.) using 5 mL of dosing solution. […] Rats were dosed with 100 μg of test compound unless otherwise indicated. At predetermined time points, rats were anesthetized with an intraperitoneal (IP) injection of 120 mg/kg inactin (thiobutabarbital). A supplemental dose (40 mg/kg, IP) was administered if the animal responded to physical stimuli (e.g. toe pinch). The surgical site was shaved and a 1-2 cm midline incision of the ventral aspect of the neck was made. The jugular vein was isolated and cannulated with a saline-filled polyethylene catheter (PE-50) to allow IV infusion of MCh. Trachea was dissected free and cannulated with a 14G needle (#NE-014, Small Parts, Miami Lakes, Fla.). After placement of the tracheal cannula, each rat was ventilated using a respirator (Model 683, Harvard Apparatus, Inc., MA) set at a stroke volume of 1 mL/100 g body weight (but not exceeding 2.5 mL volume) and a rate of 90 strokes per minute. A T-connector was placed along the respirator expiratory tubing to allow for measurement of changes in ventilation pressure (VP) using a Biopac transducer that was connected to a Biopac […]) pre-amplifier. Body temperature was maintained at 37° C. using a heating pad. Changes in VP were recorded using the Acknowledge Data Collection Software (Santa Barbara, Calif.). Baseline values were collected for at least 2.5 min. Rats were then challenged with non-cumulative intravenous (IV) infusions of 40 and 80 μg/kg MCh. MCh was infused intravenously for 2.5 minutes from a syringe pump (sp210iw, World Precision Instruments, Inc., Sarasota, Fla.) at a rate of 2 mL/kg/min, with a 2 minute interval between the two doses of MCh. Changes in ventilation pressure (cm H2O) in treated animals are expressed as % inhibition of MCh response relative to control animals. Other bronchoconstrictors, such as histamine and acetylcholine, can be used in place of MCh in this assay. Additionally, guinea pigs can be used instead of rats. […] Inhibition greater than or equal to 30 percent at 24 h is indicative of a long duration of action.

SMILES | inhibition in vivo at 0.1 mg | Broncho. at 24 h; Bronchoprotective effect present at 24 h
Cc1ccc(C(=O)NCc2cccc(CC(C)NC[C@H](O)c3ccc(O)c4[nH]c(=O)ccc34)c2)cc1N(C)C(=O)CCN1CCC(OC(=O)Nc2ccccc2-c2ccccc2)CC1 (stereo partly drawn) [Compound I-45, Biphenyl-2-ylcarbamic acid 1-(2-{[5-(3-{2-[(R)-2-hydroxy-2-(8-hydroxy-2-oxo-1,2-dihydroquinolin-5-yl)-ethylamino]propyl}benzylcarbamoyl)-2-methylphenyl]-methylcarbamoyl}ethyl)piperidin-4-yl ester ditrifluoroacetic acid salt] | < 30% | –
Cc1cc(CNC[C@H](O)c2ccc(O)c3[nH]c(=O)ccc23)ccc1NC(=O)c1cccc(N(C)C(=O)CCN2CCC(OC(=O)Nc3ccccc3-c3ccccc3)CC2)c1 [Compound I-27, Biphenyl-2-ylcarbamic acid 1-(2-{[3-(4-{[(R)-2-hydroxy-2-(8-hydroxy-2-oxo-1,2-dihydroquinolin-5-yl)-ethylamino]methyl}-2-methylphenylcarbamoyl)phenyl]-methylcarbamoyl}ethyl)piperidin-4-yl ester ditrifluoroacetic acid salt] | < 30% | –
CC(Cc1cccc(CCNC(=O)Cc2ccc(N(C)C(=O)CCN3CCC(OC(=O)Nc4ccccc4-c4ccccc4)CC3)cc2)c1)NC[C@H](O)c1ccc(O)c2[nH]c(=O)ccc12 (stereo partly shown) [Compound I-87] | – | Yes (Bronchoprotective effect present at 24 h, e.g., ≧30% inhibition of the MCh response at 24 h in the rat Einthoven assay (100 μg))
C[C@@H](Cc1cccc(CC(=O)NCc2ccc(N(C)C(=O)CCN3CCC(OC(=O)Nc4ccccc4-c4ccccc4)CC3)cc2)c1)NC[C@H](O)c1ccc(O)c2[nH]c(=O)ccc12 [Compound I-79, ditrifluoroacetic acid salt] | < 30% | –
CC(Cc1ccc(CC(=O)NCc2ccc(N(C)C(=O)CCN3CCC(OC(=O)Nc4ccccc4-c4ccccc4)CC3)cc2)cc1)NC[C@H](O)c1ccc(O)c2[nH]c(=O)ccc12 (stereo partly drawn) [Compound I-80, Biphenyl-2-ylcarbamic acid 1-{2-[(4-{[2-(4-{2-[(R)-2-hydroxy-2-(8-hydroxy-2-oxo-1,2-dihydroquinolin-5-yl)-ethylamino]propyl}phenyl)acetylamino]methyl}-phenyl)methylcarbamoyl]ethyl}piperidin-4-yl ester ditrifluoroacetic acid salt] | < 30% | –
CN(C(=O)CCN1CCC(OC(=O)Nc2ccccc2-c2ccccc2)CC1)c1cccc(C(=O)Nc2ccc(CCNC[C@H](O)c3ccc(O)c4[nH]c(=O)ccc34)cc2)c1 [Compound I-34, Ditrifluoroacetate] | > 30% | –
CC(Cc1ccc(CC(=O)Nc2cccc(N(C)C(=O)CCN3CCC(OC(=O)Nc4ccccc4-c4ccccc4)CC3)c2)cc1)NC[C@H](O)c1ccc(O)c2[nH]c(=O)ccc12 (stereo partly drawn) [Compound I-53, Biphenyl-2-ylcarbamic acid 1-[2-({3-[2-(4-{2-[(R)-2-hydroxy-2-(8-hydroxy-2-oxo-1,2-dihydroquinolin-5-yl)-ethylamino]propyl}phenyl)acetylamino]phenyl}methyl-carbamoyl)ethyl]piperidin-4-yl ester ditrifluoroacetic acid salt] | < 30% | –
CC(Cc1cccc(CNC(=O)c2cccc(N(C)C(=O)CCN3CCC(OC(=O)Nc4ccccc4-c4ccccc4)CC3)c2)c1)NC[C@H](O)c1ccc(O)c2[nH]c(=O)ccc12 (stereo partly shown) [Compound I-44, ditrifluoroacetic acid salt] | < 30% | –
COc1cc(CNC[C@H](O)c2ccc(O)c3[nH]c(=O)ccc23)ccc1NC(=O)c1cccc(N(C)C(=O)CCN2CCC(OC(=O)Nc3ccccc3-c3ccccc3)CC2)c1 [Compound I-29, ditrifluoroacetic acid salt] | < 30% | –
C[C@H](Cc1cccc(CC(=O)NCCCN(C)C(=O)CCN2CCC(OC(=O)Nc3ccccc3-c3ccccc3)CC2)c1)NC[C@H](O)c1ccc(O)c2[nH]c(=O)ccc12 [Compound I-12, Biphenyl-2-ylcarbamic acid 1-[2-({3-[2-(3-{(R)-2-[(R)-2-hydroxy-2-(8-hydroxy-2-oxo-1,2-dihydroquinolin-5-yl)ethylamino]propyl}phenyl)acetylamino]propyl}-methylcarbamoyl)ethyl]piperidin-4-yl ester ditrifluoroacetic acid salt] | < 30% | –
C[C@H](Cc1cccc(NC(=O)c2cccc(N(C)C(=O)CCN3CCC(OC(=O)Nc4ccccc4-c4ccccc4)CC3)c2)c1)NC[C@H](O)c1ccc(O)c2[nH]c(=O)ccc12 [Compound I-38, Biphenyl-2-ylcarbamic acid 1-(2-{[3-(3-{(R)-2-[(R)-2-hydroxy-2-(8-hydroxy-2-oxo-1,2-dihydroquinolin-5-yl)-ethylamino]propyl}phenylcarbamoyl)phenyl]methyl-carbamoyl}ethyl)piperidin-4-yl ester ditrifluoroacetic acid salt] | < 30% | –
CN(C(=O)CCN1CCC(OC(=O)Nc2ccccc2-c2ccccc2)CC1)c1cccc(C(=O)Nc2cccc(CCNC[C@H](O)c3ccc(O)c4[nH]c(=O)ccc34)c2)c1 [Compound I-32, ditrifluoroacetic acid salt] | < 30% | –
Cc1ccc(C(=O)Nc2ccc(CCNC[C@H](O)c3ccc(O)c4[nH]c(=O)ccc34)cc2)cc1N(C)C(=O)CCN1CCC(OC(=O)Nc2ccccc2-c2ccccc2)CC1 [Compound I-35] | – | Yes (Bronchoprotective effect present at 24 h, e.g., ≧30% inhibition of the MCh response at 24 h in the rat Einthoven assay (100 μg))
CC(Cc1ccc(CNC(=O)Cc2ccc(N(C)C(=O)CCN3CCC(OC(=O)Nc4ccccc4-c4ccccc4)CC3)cc2)cc1)NC[C@H](O)c1ccc(O)c2[nH]c(=O)ccc12 (stereo partly drawn) [Compound I-66, Biphenyl-2-ylcarbamic acid 1-[2-({4-[(4-{2-[(R)-2-hydroxy-2-(8-hydroxy-2-oxo-1,2-dihydroquinolin-5-yl)-ethylamino]propyl}benzylcarbamoyl)methyl]phenyl}-methylcarbamoyl)ethyl]piperidin-4-yl ester ditrifluoroacetic acid salt] | < 30% | –
Cc1cc(CNC[C@H](O)c2ccc(O)c3[nH]c(=O)ccc23)ccc1NC(=O)c1ccc(C)c(N(C)C(=O)CCN2CCC(OC(=O)Nc3ccccc3-c3ccccc3)CC2)c1 [Compound I-28, ditrifluoroacetic acid salt] | < 30% | –
CC(Cc1cccc(CC(=O)Nc2cccc(N(C)C(=O)CCN3CCC(OC(=O)Nc4ccccc4-c4ccccc4)CC3)c2)c1)NC[C@H](O)c1ccc(O)c2[nH]c(=O)ccc12 (stereo partly shown) [Compound I-52, ditrifluoroacetic acid salt] | < 30% | –
